Results on 1 compound are retold here after ChEMBL document CHEMBL4334512, “Rationally Designed, Conformationally Constrained Inverse Agonists of RORγt-Identification of a Potent, Selective Series with Biologic-Like in Vivo Efficacy” (J Med Chem, 2019).

Data set [1] has as its target T1, Nuclear receptor subfamily 1 group I member 2 (Homo sapiens, UniProt O75469).
T1 sequence (O75469 whole entry): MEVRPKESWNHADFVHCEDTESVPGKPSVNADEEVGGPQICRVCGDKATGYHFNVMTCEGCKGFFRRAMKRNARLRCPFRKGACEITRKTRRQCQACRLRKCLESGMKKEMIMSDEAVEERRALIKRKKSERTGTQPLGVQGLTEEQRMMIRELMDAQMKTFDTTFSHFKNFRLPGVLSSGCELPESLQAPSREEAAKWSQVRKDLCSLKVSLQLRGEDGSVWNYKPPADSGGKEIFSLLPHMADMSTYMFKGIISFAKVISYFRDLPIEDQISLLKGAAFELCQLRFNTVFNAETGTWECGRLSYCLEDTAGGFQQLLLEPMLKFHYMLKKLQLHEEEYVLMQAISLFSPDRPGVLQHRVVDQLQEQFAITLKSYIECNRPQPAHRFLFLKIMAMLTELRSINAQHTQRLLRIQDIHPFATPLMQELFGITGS
As to the kind of experiment: Activity at PXR (unknown origin).

The nature of data set [2]: Half life in mouse liver microsomes. The format is ADME, Microsome. Background: Liver microsomes are vesicles of endoplasmic reticulum, rich in cytochrome P450 enzymes.
The nature of data set [3]: Unbound fraction in rat serum. The format is ADME, cell-free.
Data set [4] is described as follows: Volume of distribution at steady state in dog at 1 mg/kg, iv. It is filed as ADME, organism-based, Canis lupus familiaris. Conditions: in vivo, read-out: Vdss.
The target of data set [5] is T2, Nuclear receptor ROR-gamma (Mus musculus, UniProt P51450).
T2 sequence (P51450 whole entry): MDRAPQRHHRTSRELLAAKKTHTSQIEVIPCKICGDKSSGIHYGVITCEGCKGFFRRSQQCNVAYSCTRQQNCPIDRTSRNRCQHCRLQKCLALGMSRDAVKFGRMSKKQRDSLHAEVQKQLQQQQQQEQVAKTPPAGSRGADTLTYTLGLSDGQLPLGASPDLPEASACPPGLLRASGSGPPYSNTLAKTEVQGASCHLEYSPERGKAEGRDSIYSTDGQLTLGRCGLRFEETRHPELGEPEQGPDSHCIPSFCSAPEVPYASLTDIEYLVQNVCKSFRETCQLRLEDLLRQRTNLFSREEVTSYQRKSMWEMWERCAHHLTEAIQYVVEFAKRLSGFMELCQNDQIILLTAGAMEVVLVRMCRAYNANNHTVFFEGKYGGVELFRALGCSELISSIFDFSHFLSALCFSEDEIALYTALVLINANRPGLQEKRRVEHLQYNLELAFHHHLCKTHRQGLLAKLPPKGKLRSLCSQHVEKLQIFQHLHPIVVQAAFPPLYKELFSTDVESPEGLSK
As to the kind of experiment: Inverse agonist activity at RORgammat in mouse cells by mTh17 assay. It is filed as cell-based.

Data set [6] deals with Mus musculus. As to the kind of experiment: Suppression of IL-22 RNA expression in skin region of mouse model of IL-23 induced acanthosis model of psoriasis at 30 mg/kg, po BID for 10 days measured every other day relative to control. The format is functional. The conditions noted are these: 240 h.
The target in data set [7] is T3, Cytochrome P450 1A2 (Homo sapiens, UniProt P05177).
T3 sequence (P05177 whole entry): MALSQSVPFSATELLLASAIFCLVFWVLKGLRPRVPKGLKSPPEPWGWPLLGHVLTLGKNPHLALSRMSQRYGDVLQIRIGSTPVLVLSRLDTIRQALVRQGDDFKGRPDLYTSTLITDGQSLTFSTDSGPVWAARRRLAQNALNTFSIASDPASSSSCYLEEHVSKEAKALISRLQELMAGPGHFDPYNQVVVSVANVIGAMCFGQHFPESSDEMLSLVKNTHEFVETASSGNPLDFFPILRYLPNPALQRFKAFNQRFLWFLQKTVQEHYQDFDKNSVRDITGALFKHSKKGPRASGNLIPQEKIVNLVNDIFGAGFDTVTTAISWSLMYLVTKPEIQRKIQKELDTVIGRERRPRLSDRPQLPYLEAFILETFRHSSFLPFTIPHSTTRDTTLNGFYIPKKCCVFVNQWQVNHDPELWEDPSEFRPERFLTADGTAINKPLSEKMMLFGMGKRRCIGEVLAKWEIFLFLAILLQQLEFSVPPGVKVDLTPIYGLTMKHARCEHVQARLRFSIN
As to the kind of experiment: Inhibition of recombinant CYP1A2 (unknown origin). It is filed as ADME.

A short description of data set [8]: Half life in rat at 2 mg/kg, iv. It is filed as ADME, organism-based. The conditions noted are these: in vivo.
Data set [9] is described as follows: Clearance in rat at 2 mg/kg, iv. It is filed as ADME, organism-based. The conditions noted are these: in vivo.
For data set [10], the system named is Mus musculus. As to the kind of experiment: Suppression of IL-17F production in mouse stimulated at time -24 hrs with IL-2 and at time 0, 7, and 24 hrs with IL-2/IL-23 mixture dosed with compound at 0 and 24 hrs and measured at 30 hrs.
Data set [11] concerns the target T1, Nuclear receptor subfamily 1 group I member 2. As to the kind of experiment: Agonist activity at PXR (unknown origin) by Gal4-Luc reporter gene assay).
Data set [12] can be described thus: Total AUC in rat at 4 mg/kg, po. The format is ADME, organism-based. More on the design: dose 4 mg/kg, route oral, time AUCmax. Conditions: in vivo.
Data set [13] in a line: Oral bioavailability in dog at 1 mg/kg. It is filed as ADME, organism-based, Canis lupus familiaris. The conditions noted are these: in vivo.
For data set [14], the target named is T4, Nuclear receptor ROR-alpha (Homo sapiens, UniProt P35398).
T4 sequence (P35398 whole entry): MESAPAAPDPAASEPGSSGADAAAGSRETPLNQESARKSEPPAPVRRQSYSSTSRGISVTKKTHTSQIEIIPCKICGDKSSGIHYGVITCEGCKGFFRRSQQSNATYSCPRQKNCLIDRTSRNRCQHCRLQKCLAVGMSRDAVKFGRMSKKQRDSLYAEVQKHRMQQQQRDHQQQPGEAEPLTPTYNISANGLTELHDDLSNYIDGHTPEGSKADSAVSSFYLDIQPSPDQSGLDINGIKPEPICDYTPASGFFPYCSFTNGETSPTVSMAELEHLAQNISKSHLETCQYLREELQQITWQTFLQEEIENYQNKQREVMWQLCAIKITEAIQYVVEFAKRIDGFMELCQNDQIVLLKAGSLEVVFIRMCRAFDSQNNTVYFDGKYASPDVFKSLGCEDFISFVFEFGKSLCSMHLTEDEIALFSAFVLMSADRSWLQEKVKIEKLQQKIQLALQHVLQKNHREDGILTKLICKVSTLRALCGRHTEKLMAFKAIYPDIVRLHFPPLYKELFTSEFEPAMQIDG
As to the kind of experiment: Activity at RORalpha (unknown origin).

For data set [15], the system named is Mus musculus. As to the kind of experiment: Suppression of ear thickness in mouse model of IL-23 induced acanthosis model of psoriasis at 10 mg/kg, po BID for 10 days measured every other day relative to control. It is filed as functional. The conditions noted are these: 240 h.
Data set [16] addresses T2, Nuclear receptor ROR-gamma. As to the kind of experiment: Inverse agonist activity at RORgammat in CD3/CD28/IL-1/IL-23-stimulated C57/B6 mouse whole blood assessed as reduction in IL17A production incubated for 1 hr before stimulation with CD3/CD28/IL-1/IL-23 for 24 hrs by AlphaLISA method. The format is tissue-based. (Bead proximity is the source of the signal in Alpha formats.)

Data set [17] in a line: Volume of distribution at steady state in mouse at 2 mg/kg, iv. It is filed as ADME, organism-based. The conditions noted are these: in vivo, read-out: Vdss.
Data set [18] relates to Mus musculus. As to the kind of experiment: Suppression of IL-22 RNA expression in skin region of mouse model of IL-23 induced acanthosis model of psoriasis at 10 mg/kg, po BID for 10 days measured every other day relative to control. The format is functional. Conditions: 240 h.
The nature of data set [19]: Cmax in rat at 4 mg/kg, po. Conditions: in vivo. It is filed as ADME, organism-based. More on the design: dose 4 mg/kg, route oral.

Bounds are passed on as bounds.

`O=C(N1CC[C@@]2(S(=O)(=O)c3ccc(F)cc3)c3ccc(C(F)(C(F)(F)F)C(F)(F)F)cc3CC[C@@H]12)C1(O)CCS(=O)(=O)CC1`: the IC50 was above 40000 nM in [1], above 20000 nM in data set [7] and above 10000 nM in [14]. Further, the figures for the half-life in data set [2] and in data set [8] were above 2 h and 7 h, respectively. The same compound gave a fraction unbound in [3] of 0.011. The Vd in data set [4] turned out to be 2.6 L/kg; in [17] it was 2.7 L/kg. In addition, the half-maximal effective concentration (EC50) in [5] was 13 nM; in data set [10], 88 nM; in [11] it was above 50000 nM; in data set [16] it was 440 nM. The same compound had an inhibition in vivo at 30 mg/kg in data set [6] of 97%. In data set [9], this compound gave a clearance of 3.7 mL/min/kg. The same compound gave an AUC in data set [12] of 17 µM·h. In [13], this compound registered a bioavailability of 100%. For the same compound, the figures for the inhibition in vivo at 10 mg/kg in data set [15] and in [18] were 51% and 92%, respectively. Further, in data set [19], the peak level (Cmax) was 1100 nM.

The IC50 is the point on the concentration scale where inhibition reaches its midpoint. In general, half-life refers to the time needed for the level to fall by half in the phase considered. Higher therefore signals slow decline. As a reminder, the fraction unbound is free concentration divided by total concentration. A higher fraction unbound goes with much free substance. In general, EC50 refers to the concentration at which the effect is half-maximal. As usually defined, the inhibition in vivo is the share of the control response that was lost under treatment. In general, clearance refers to the rate of elimination divided by the concentration. Low readings indicate inefficient removal, high ones efficient removal. What is called AUC is concentration integrated over time. A lower AUC goes with less exposure. A word on the bioavailability: it is the share of a dose that reaches the circulation, judged against a reference dose that is usually intravenous. A low value points to poor availability. The Cmax is the maximum level reached in the sampled fluid or tissue.
